These results are taken from patent US9913846B2, “Combination of a PI3 kinase inhibitor with pacitaxel for use in the treatment or prevention of a cancer of the head and neck” (NOVARTIS AG, priority 2013, dated 2018).

A short description of data set [1]: Concentration delivered to patients. Type of data set: in vivo, human. The following applies: patients treated at 100 mg daily; expected. An excerpt: (§1) (Red=KRAS mutant=UMSCC-74A. Yellow=PI3KCA mutant=CAL33).
A further data set relates to UPCISCC153. The data set is described as follows: Cancer cell growth inhibition, cell counting after 5 days. Conditions: 120 h. The data set is classed as cell-based. How it is done: (§2) Data was compared with untreated controls. […] Experiments were carried out in duplicate. The table below details the results.
The subject of the next data set is UMSCC11A. The data set is described as above. Type of data set: cell-based. Conditions: 120 h. As to the method:
as §2

For another data set, the system named is UMSCC1. The data set is described as above. Type of data set: cell-based. The following applies: Homo sapiens, 120 h. As to the method: as §2
The test system of the next data set is UMSCC5. Described as above. The data set is classed as cell-based. The following applies: UM-SCC-5, 120 h. How it is done: as §2
In data set [2] the test system is head and neck cancer cell lines. The data set is described as follows: Sensitivity of head and neck cancer cell line panels to Compound A (FIG. 1). The data set is classed as cell-based. The following applies: majority of the cell lines of two independently tested panels.
Text: as §1

Data set [3] concerns pAKT in FaDu xenograft (Hypopharynx squamous cell carcinoma). The data set is described as follows: pAKT in tumor tissue of FaDu xenograft (FIG. 2). Type of data set: in vivo. Conditions: Compound A at 30 mg daily.

Molecules are shown by their SMILES.

With `Nc1cc(C(F)(F)F)c(-c2cc(N3CCOCC3)nc(N3CCOCC3)n2)cn1` [Compound A, 5-(2,6-di-morpholin-4-yl-pyrimidin-4-yl)-4-trifluoromethyl-pyridin-2-ylamine], in data set [1], the “concentration delivered to patients” value is reported as “around 1 μM”. The inhibition at 1 µM with UPCISCC153 (Compound A 1 μM) was 15%; in the data set with UMSCC11A (Compound A 1 μM), 21.9%; in the data set on UMSCC1 (Compound A 1 μM), 21.2%; with UMSCC5 (Compound A 1 μM), 28%. Also, the IC50 in data set [2] is under 1000 nM. Also, in data set [3], the “pAKT in tumor tissue” value is “inhibition of pAKT”.
On to `CC(=O)O[C@H]1C(=O)[C@@]2(C)[C@H]([C@H](OC(=O)c3ccccc3)[C@]3(O)C[C@H](OC(=O)[C@H](O)[C@@H](NC(=O)c4ccccc4)c4ccccc4)C(C)=C1C3(C)C)[C@]1(OC(C)=O)CO[C@@H]1C[C@@H]2O` [Paclitaxel, 5β,20-Epoxy1,2a,4,7β, 10β, 13a-hexahydroxytax-11-en-9-one 4, 10,-diacetate 2-benzoate 13-ester with (2R, 3S)—N-benzoyl-3-phenylisoserine, reference compound], for which the inhibition at 0.001 µg/mL in the data set with UPCISCC153 (paclitaxel 1 ng/ml) was determined as 0%; in the data set on UMSCC11A (paclitaxel 1 ng/ml) it was 3.13%; with UMSCC1 (paclitaxel 1 ng/ml), 4.6%; in the data set with UMSCC5 (paclitaxel 1 ng/ml), 7.6%.

As a reminder, the inhibition is how much of the control response was suppressed. A lower inhibition goes with little suppression. What is called IC50 is the midpoint of a concentration-inhibition curve.
